According to patent US8642656B2, “Calixarene-based peptide conformation mimetics, methods of use, and methods of making” (priority 2004, dated 2014):
Entries after “also recorded” stand apart in the source; their conditions may differ. Like-named read-outs stand apart in the source and are kept apart here.

Tests used:
[1] = system: LPS from E. coli serotype 0111:B4; assay: LPS neutralization assay (Limulus amoebocyte lysate, QCL-1000); format: biochemical; details: read-out: IC50 values (μM) for LPS binding, E. coli 0111:B4
Outline: (§1)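 Compounds were tested for inhibition of LPS-triggered activation of the Limulus amoebocyte lysate proenzyme, which cleaves a chromogenic substrate to release p-nitroaniline read at 405-410 nm. Each LPS was used at 0.04 units. IC50 came from sigmoidal dose-response fits.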

[2] = system: LPS from E. coli serotype 055:B5; assay: as above; format: biochemical
Outline: (§2)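 LPS (0.04 units per strain) is mixed with compound and Limulus amoebocyte lysate. Proenzyme activation is then followed by chromogenic substrate cleavage and pNA absorbance at 405-410 nm. Dose-response curves are fit sigmoidally to give IC50.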

LPS from P. aeruginosa = assay: as above; format: biochemical, Pseudomonas aeruginosa; details: read-out: IC50 values (μM) for LPS binding, P.a.
Outline: as §1

LPS from K. pneumoniae = assay: as above; format: biochemical, Klebsiella pneumoniae; details: read-out: IC50 values (μM) for LPS binding, Klebsiella
Outline: as §2

LPS from S. typhimurium = assay: as above; format: biochemical, Salmonella typhimurium; details: read-out: IC50 values (μM) for LPS binding, Salmonella
Outline: as §1

LPS from S. marcascens = assay: as above; format: biochemical, Serratia marcascens; details: read-out: IC50 values (μM) for LPS binding, Serratia
Outline: as §1

[3] = system: LPS from six species of bacteria; assay: LPS neutralization assay, overall statements; format: biochemical; details: library of 23 compounds
Source text: The ability of compounds to neutralize endotoxin was detected in vitro by using the chromogenic QCL-1000 kit from BioWhittaker, Inc. (Walkersville, Md.), and as described in their protocol. This Limulus amoebocyte lysate (LAL) assay is quantitative for Gram negative bacterial endotoxin (lipopolysaccharide, LPS). In this assay compounds that are active inhibit the LPS-mediated activation of a proenzyme whose active form would release p-nitroaniline (pNA) from a colorless synthetic substrate producing a yellow color (pNA) whose absorption is monitored spectrophotometrically at 405-410 nm. The initial rate of enzyme activation is proportional to the concentration of endotoxin present.
Variants of LPS from six Gram negative bacteria were used: E. coli serotypes 0111:B4 (Combrex, Walkersville, Md.) and 055:B5 (Sigma, St. Louis, Mo.); Klebsiella pneumoniae (List Biologies, San Jose, Calif.); Pseudomonas aeruginosa (List Biologies, San Jose, Calif.); Salmonella typhimurium (List Biologies, San Jose, Calif.), and Serratia marcascens (List Biologies, San Jose, Calif.). The concentration of compound required to neutralize a given LPS and therefore to inhibit the Limulus amoebocyte lysate driven by 0.04 units of any given LPS was determined by dose response curves fit by using a standard sigmoidal function to determined the JC50 value for each lopomimetic compound. […]

LPS from E. coli 055:B5 = assay: Endotoxemia study in mice, lethal dose of E. coli 055:B5 LPS; format: in vivo; details: E. coli 055:B5 LPS 600 μg; 5 mg/kg
Experimental: In three separate studies, these compounds were tested against LPS derived from E. coli serotype 0111:B4, E. coli serotype 055:B5 LPS, and Salmonella. The compounds (in a final concentration of 2% DMSO v/v), were first mixed individually with LPS, and incubated for 30 minutes prior to i.p. injection into C57/BL6 mice (n=4-8/group). The control mice were treated with DMSO (2% v/v) alone. Each mouse received a lethal dose of LPS, with or without one of the compounds.
(§3) J Bacteriol 93, 1463-4 (1967)). Mice were provided food and water as usual ad libitum, and monitored for several days. When it was observed that mice were in distress and death was imminent, animals were sacrificed; in some cases, mice expired during the night and were found dead the following morning. Data are plotted as the number of surviving mice versus lime in hours. Statistical analysis was performed on the average amount of survival time per group with a maximum or 120 hours (surviving mice) by using the Student's t-test.

[4] = Acute toxicity observed in the endotoxemia model; format: in vivo, mice; details: i.p., single dose of 50 mg/kg, together with LPS
Experimental: as §3, with “C57 male black mice were injected i.p. with a solution that contained a lethal dose of LPS [600 μg of LPS from E. coli 055:B5 and Salmonella, and 500 μg of LPS from […]] and 1.25 mg of the lopomimetic compound (a dose of 50 mg/kg) (Rifkind, D. J” for “J”

Substance: 5,11,17,23-Tetra-tert-butyl-25,26,27,28-tetrakis(4-guanidinobutoxy) calix[4]arene trifloroacetic acid salt [Compound 42]
- IC50 ([1]; Table 2): 0.7 µM
- IC50 ([1]; Table 3, errors estimated ±30%): 0.7 µM
- IC50 ([2]; Table 2, read-out: IC50 values (μM) for LPS binding, E. coli 055:B4): 0.04 µM
- IC50 ([2]; Table 3, errors estimated ±30%, read-out: IC50 values (μM) for LPS binding, E. coli 055:B5): 0.04 µM
- IC50 (LPS from P. aeruginosa; Table 2): 1.5 µM
- IC50 (LPS from P. aeruginosa; Table 3, errors estimated ±30%): 1.5 µM
- IC50 (LPS from K. pneumoniae; Table 2): 1 µM
- IC50 (LPS from K. pneumoniae; Table 3, errors estimated ±30%): 1 µM
- IC50 (LPS from S. typhimurium; Table 2): 0.6 µM
- IC50 (LPS from S. typhimurium; Table 3, errors estimated ±30%): 0.6 µM
- IC50 (LPS from S. marcascens; Table 2): > 5 µM
- IC50 (LPS from S. marcascens; Table 3, errors estimated ±30%): > 5 µM
- neutralizing LPS, ranking in words [3]: best LPS neutralizing compounds; also recorded: most effective for neutralizing LPS
- survival of LPS-challenged mice (LPS from E. coli 055:B5): ineffective
- sign of acute toxicity [4]: did not demonstrate any sign of acute toxicity
